Consider 75 compounds from PubChem BioAssay AID1996.

Molecules are shown by their SMILES. In brackets after ≈: the same amount, converted by molar mass. A value given as a limit tells only on which side of the number the result lay.

The conditions of this data set: buffer; pH 7.4; 200.0 µM.
In general, solubility (kinetic) refers to the concentration staying in solution when a stock, usually in DMSO, is diluted into the medium. `Cl.OC1(c2ccccc2)CCN(Cc2ccccc2)CC1`: the solubility (kinetic) amounted to 37.6 µg/mL.

Turning to `O=C(NCCNc1ccc([N+](=O)[O-])cc1)c1ccc(Cl)cc1`, the solubility (kinetic) came to 1.9 µg/mL (≈ 5.94 µM).

In turn, `O=[N+]([O-])c1ccc(S(=O)(=O)Nc2nc(-c3ccccc3)cs2)cc1` showed a solubility (kinetic) above 54.2 µg/mL.

Regarding `Cc1ccc(NC(=O)NCCN2CCCCC2)cc1Cl`, the solubility (kinetic) is above 44.4 µg/mL.

For the compound `CCOC(=O)c1cnc2c(C)cccc2c1NCCCN1CCOCC1`, the kinetic solubility was above 53.6 µg/mL.

`Cn1c(N)c(N=O)c(=O)n(C)c1=O`: the kinetic solubility was above 27.6 µg/mL.

Turning to `CC(=O)Nc1cccc(-c2nc3ccccc3[nH]2)c1`, the kinetic solubility is above 37.7 µg/mL.

With `CCc1nnc(SC(C)C(=O)Nc2nccs2)n1C` (stereo not given), the kinetic solubility is above 44.6 µg/mL.

With `Cc1cc(C)c(OCC(=O)Nc2cc(C(=O)O)cc(C(=O)O)c2)cc1C`, the kinetic solubility was above 53.6 µg/mL.

`CCOc1ccc(N2C(=O)C3CCCN3C2=S)cc1` (stereo not given) displayed a kinetic solubility above 41.5 µg/mL.

The compound `O=C(CCS(=O)(=O)c1ccccc1)NC1CCCC1` displayed a kinetic solubility above 42.2 µg/mL.

Regarding `COc1ccc(CCNC(=O)c2ccc3ccccc3n2)cc1`, the kinetic solubility amounted to 22.2 µg/mL (≈ 72.5 µM).

On to `Cc1ccccc1N1CCN(S(=O)(=O)c2cccs2)CC1`, for which the solubility (kinetic) worked out at 4 µg/mL (≈ 12.4 µM).

`CCNC(=O)c1ccc(=O)n(Cc2ccc(Cl)cc2Cl)c1` had a kinetic solubility of 39 µg/mL (≈ 120 µM).

As for `O=C(NC(=S)Nc1ccc2ncccc2c1)c1ccccc1`, the kinetic solubility came to 1.4 µg/mL (≈ 4.55 µM).

Compound `O=C(CSc1ccccc1C(=O)O)NCc1ccccc1` yielded a kinetic solubility of 44 µg/mL (≈ 146 µM).

As for `Cc1occc1C(=O)NCc1nc(-c2ccccc2)no1`, the kinetic solubility is above 42.5 µg/mL.

As for `O=C(COC(=O)c1cc(Br)ccc1Cl)NC1CCCC1`, the kinetic solubility came out at 5.6 µg/mL (≈ 15.5 µM).

`COc1ccc(OC)c(NC(=O)Nc2ccc3c(c2)OCO3)c1` showed a solubility (kinetic) of 2.3 µg/mL (≈ 7.27 µM).

For the compound `COCC1CCCN(Cc2nc(-c3ccc4c(c3)OCO4)no2)C1` (stereo not given), the kinetic solubility was 43.4 µg/mL (≈ 131 µM).

Consider `Cc1ccc(N=C2C(=O)Nc3ccccc32)cc1C`, for which the kinetic solubility is 24 µg/mL (≈ 95.9 µM).

As to `O=C(COC(=O)c1ccc(O)cc1)NCCC1=CCCCC1`, the solubility (kinetic) was above 45.5 µg/mL.

In turn, `Cc1ccccc1CS(=O)(=O)CC(O)CN1CCCC1=O` (stereo not given) had a solubility (kinetic) above 46.7 µg/mL.

As for `COc1ccc(Nc2nc(N)c([N+](=O)[O-])c(NC3CCCCC3)n2)cc1`, the kinetic solubility was determined as 0.2 µg/mL (≈ 0.558 µM).

`CCc1ccc(N2C(=O)C3C4C=CC(CC4)C3C2=O)cc1` (stereo not given) came in with a solubility (kinetic) of 14.3 µg/mL (≈ 50.8 µM).

In turn, `COC(=O)c1cccnc1NC(=S)NC1CCCCC1` had a kinetic solubility of 0.9 µg/mL (≈ 3.07 µM).

`CCCCC1(c2ccc(F)cc2)NC(=O)N(CC(=O)Nc2ccc(N3CCOCC3)cc2)C1=O` (stereo not given) gave a solubility (kinetic) of 55.7 µg/mL (≈ 119 µM).

With `CCCN1CCC(NC(=O)Cc2ccccc2C)CC1`, the kinetic solubility turned out to be 33.4 µg/mL (≈ 122 µM).

Take `CN1CCN(c2ccccc2NC(=O)c2cccs2)CC1`: the kinetic solubility is above 45.2 µg/mL.

In the case of `CC(NC1CCN(Cc2ccccc2)CC1)c1ccc(F)cc1` (stereo not given), the kinetic solubility worked out at 42.3 µg/mL (≈ 135 µM).

`CCCCCn1c(C)c2c(OCC)cccc(=O)c2c1C` gave a kinetic solubility of 9.4 µg/mL (≈ 32.7 µM).

The compound `COc1ccc(C(=O)COC(=O)c2cc(C)no2)c(OC)c1` gave a kinetic solubility above 45.8 µg/mL.

With `O=C1CSC(c2ccc([N+](=O)[O-])cc2)N1c1ccc(O)cc1` (stereo not given), the kinetic solubility amounted to 46.4 µg/mL (≈ 147 µM).

`S=c1[nH]c2ccccc2n1CCOc1ccccc1` came in with a solubility (kinetic) of 20.2 µg/mL (≈ 74.7 µM).

Take `CCN(CC)C(=O)C1CCCN(c2ccc([N+](=O)[O-])cc2)C1` (stereo not given): the solubility (kinetic) was above 45.8 µg/mL.

Turning to `CC(Oc1ccc(Cl)cc1Cl)C(=O)Nc1ccc(OCC(=O)O)cc1` (stereo not given), the kinetic solubility was above 57.6 µg/mL.

Compound `Cc1ccc2[nH]c3c(c2c1)CN(C(=O)CN1CCCCC1)CC3` displayed a solubility (kinetic) of 41.8 µg/mL (≈ 134 µM).

In turn, `O=C(COC(=O)C1C2CC3OC(=O)C1C3C2)Nc1ccc(F)cc1` (stereo not given) gave a kinetic solubility above 50 µg/mL.

Regarding `COc1ccc(Cl)cc1C(=O)NCCCN1CCOCC1`, the solubility (kinetic) was above 46.9 µg/mL.

`COc1cc(OC)c(OC)cc1CN1CCSCC1` had a kinetic solubility of 32.3 µg/mL (≈ 114 µM).

`O=Cc1ccc(-c2cccc([N+](=O)[O-])c2)o1` yielded a solubility (kinetic) of 6.3 µg/mL (≈ 29 µM).

Compound `Cc1oc(-c2cccc(C(F)(F)F)c2)nc1CN1CCC[C@H]1CO` came in with a solubility (kinetic) above 51.1 µg/mL.

`CCOC(=O)C1CCCN(C/C=C/c2ccccc2)C1` (stereo not given) came in with a solubility (kinetic) of 20.5 µg/mL (≈ 75 µM).

Consider `O=C(CCN1C(=O)C2C3CCC(C3)C2C1=O)OCC(=O)c1ccccc1` (stereo not given), for which the kinetic solubility came to 52.9 µg/mL (≈ 149 µM).

For the compound `CC(OC(=O)c1ccco1)C(=O)Nc1ncc(Cl)cc1Cl` (stereo not given), the solubility (kinetic) was determined as 49.2 µg/mL (≈ 149 µM).

In the case of `COc1ccc(CC(=O)NC2CCSc3ccccc32)cc1OC` (stereo not given), the kinetic solubility worked out at 0.7 µg/mL (≈ 2.04 µM).

In turn, `CCN(CC(=O)NC1CCS(=O)(=O)C1)S(=O)(=O)c1ccc(Br)cc1` (stereo not given) returned a solubility (kinetic) above 65.9 µg/mL.

For `Cc1ccc(C(=O)Nc2nc(-c3ccccn3)cs2)o1`, the solubility (kinetic) was 37.1 µg/mL (≈ 130 µM).

In turn, `Cc1ccc(S(=O)(=O)N2CCC(C(=O)NCCN3CCOCC3)CC2)cc1C` came in with a kinetic solubility of 58.4 µg/mL (≈ 143 µM).

In turn, `Cl.O=C1C2CCCC1C(N1CCCCC1)CC2` (stereo not given) showed a solubility (kinetic) above 38.7 µg/mL.

On to `Cc1nn(C)c(C)c1NC(=O)CCl.Cl`, for which the kinetic solubility was above 35.7 µg/mL.

On to `Nc1ccc(-c2ccc(N)c(C(=O)O)c2)cc1C(=O)O`, for which the solubility (kinetic) is above 40.8 µg/mL.

Compound `CC(C)(Oc1ccc(Cl)cc1)C(=O)O/N=C(\N)c1ccncc1` registered a solubility (kinetic) of 34.3 µg/mL (≈ 103 µM).

For the compound `Brc1ccc(OCc2nc3ccccc3[nH]2)cc1`, the kinetic solubility came out at 2.4 µg/mL (≈ 7.92 µM).

Compound `C/C(CCC1CC(C)OC1=O)=N\NC(N)=S` (stereo not given) had a kinetic solubility above 36.5 µg/mL.

Regarding `Oc1ccc(CCC2CCCCN2Cc2nc(C3CC3)no2)cc1` (stereo not given), the solubility (kinetic) is above 49.1 µg/mL.

The compound `Cc1ccc(NC(=O)c2cccs2)cc1[N+](=O)[O-]` gave a kinetic solubility of 2.4 µg/mL (≈ 9.15 µM).

The compound `CC(C)NC(=O)c1ccc(CN2CCc3ccccc3C2)cc1` returned a solubility (kinetic) of 2.6 µg/mL (≈ 8.43 µM).

In the case of `COc1cccc2cc(C(=O)Nc3ccccc3C)/c(=N/O)oc12`, the kinetic solubility amounted to 4.6 µg/mL (≈ 14.2 µM).

The compound `O=C(NCc1cccnc1)C1CC(c2cccc(Br)c2)=NO1` (stereo not given) displayed a solubility (kinetic) of 52.5 µg/mL (≈ 146 µM).

`CC(C(=O)O)n1c2ccccc2c2cnn(C)c(=O)c21` (stereo not given) had a kinetic solubility above 40.7 µg/mL.

In turn, `CC(OC(=O)C1CC1)C(=O)Nc1cc(Cl)cc(Cl)c1` (stereo not given) had a solubility (kinetic) above 45.3 µg/mL.

Consider `CSc1ccc(C(=S)N2CCCC2)cc1`, for which the kinetic solubility stood at 29.6 µg/mL (≈ 125 µM).

For `CN1C(=O)N(C)C(c2ccccc2Cl)C2=C1CC(C)(C)CC2=O` (stereo not given), the solubility (kinetic) was above 49.9 µg/mL.

On to `Cc1nc(N)nc(N/N=C/c2ccccc2)n1`, for which the solubility (kinetic) is above 34.2 µg/mL.

The compound `Cc1ccccc1OCC(=O)OCC(=O)Nc1ccc(Cl)cn1` showed a solubility (kinetic) of 47.2 µg/mL (≈ 141 µM).

Take `CCOC(=O)c1c(C)[nH]c(C(=O)NCC(c2ccco2)N2CCCCC2)c1C` (stereo not given): the kinetic solubility was found to be 2 µg/mL (≈ 5.16 µM).

In turn, `Cn1c(N2CCOCC2)c(C=O)c2ccccc21` registered a solubility (kinetic) above 36.6 µg/mL.

In turn, `O=C(Nc1ccc(F)c(Cl)c1)C1CC(=O)n2c(nc3ccccc32)N1` (stereo not given) registered a kinetic solubility of 0.4 µg/mL (≈ 1.11 µM).

Take `O=C(Nc1ccc(F)cc1)c1csc(Cc2ccccc2)n1`: the kinetic solubility was determined as 1.3 µg/mL (≈ 4.16 µM).

Compound `Cc1cc(C)c(S(=O)(=O)NC2CC3CCC2C3)c(C)c1` (stereo not given) showed a kinetic solubility below 0.6 µg/mL.

Regarding `O=C(CN1CCOCC1)Nc1ccc2c(c1)OC(F)(F)O2`, the solubility (kinetic) amounted to 41.2 µg/mL (≈ 137 µM).

Take `Cc1cccc(NS(=O)(=O)c2ccc([N+](=O)[O-])cc2)n1`: the kinetic solubility was 39.4 µg/mL (≈ 134 µM).

In the case of `Cc1cccc(C(=O)N2CCCC(Nc3ccc(C)c(C)c3)C2)n1` (stereo not given), the solubility (kinetic) turned out to be 42.1 µg/mL (≈ 130 µM).

Consider `OC(CN1CCN(c2ccc(C(F)(F)F)cn2)CC1)c1ccccc1` (stereo not given), for which the kinetic solubility amounted to 1.8 µg/mL (≈ 5.12 µM).
